Assay results as given in ChEMBL document CHEMBL1201862, “PubChem BioAssay data set” (2004).
The source made the active and inactive calls.

Experiments:
[1] = target: SUMO-activating enzyme (Homo sapiens, UniProt Q9UBT2); assay: blockers of UBC9-mediated SUMO conjugation – biochemical, AlphaScreen, SUMOylation inhibitor project, confirmation (AID 2018); type: functional
[2] = target: T1, Mannose-6-phosphate isomerase (Homo sapiens, UniProt P34949); assay: MPI inhibition at elevated mannose 6-phosphate – biochemical, fluorescence intensity, high mannose 6-phosphate, primary screen (AID 1220)
T1 sequence (P34949 whole entry): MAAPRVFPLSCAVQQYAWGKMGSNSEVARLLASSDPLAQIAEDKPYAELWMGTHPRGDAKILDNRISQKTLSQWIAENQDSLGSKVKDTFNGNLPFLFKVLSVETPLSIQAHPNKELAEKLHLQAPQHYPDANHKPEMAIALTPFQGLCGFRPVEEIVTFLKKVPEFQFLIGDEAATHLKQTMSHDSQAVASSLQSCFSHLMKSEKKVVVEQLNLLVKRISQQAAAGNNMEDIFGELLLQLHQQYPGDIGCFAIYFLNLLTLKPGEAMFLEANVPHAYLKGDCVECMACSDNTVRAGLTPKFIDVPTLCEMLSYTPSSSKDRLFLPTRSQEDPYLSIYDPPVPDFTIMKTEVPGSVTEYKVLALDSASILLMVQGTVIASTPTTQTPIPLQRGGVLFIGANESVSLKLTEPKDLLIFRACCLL

[3] = target: T2, Hexokinase HKDC1 (Homo sapiens, UniProt Q2TB90); assay: activation of HKDC1 glucose phosphorylation – biochemical, W721R variant, dose response (AID 504730); type: functional
T2 sequence (Q2TB90 whole entry): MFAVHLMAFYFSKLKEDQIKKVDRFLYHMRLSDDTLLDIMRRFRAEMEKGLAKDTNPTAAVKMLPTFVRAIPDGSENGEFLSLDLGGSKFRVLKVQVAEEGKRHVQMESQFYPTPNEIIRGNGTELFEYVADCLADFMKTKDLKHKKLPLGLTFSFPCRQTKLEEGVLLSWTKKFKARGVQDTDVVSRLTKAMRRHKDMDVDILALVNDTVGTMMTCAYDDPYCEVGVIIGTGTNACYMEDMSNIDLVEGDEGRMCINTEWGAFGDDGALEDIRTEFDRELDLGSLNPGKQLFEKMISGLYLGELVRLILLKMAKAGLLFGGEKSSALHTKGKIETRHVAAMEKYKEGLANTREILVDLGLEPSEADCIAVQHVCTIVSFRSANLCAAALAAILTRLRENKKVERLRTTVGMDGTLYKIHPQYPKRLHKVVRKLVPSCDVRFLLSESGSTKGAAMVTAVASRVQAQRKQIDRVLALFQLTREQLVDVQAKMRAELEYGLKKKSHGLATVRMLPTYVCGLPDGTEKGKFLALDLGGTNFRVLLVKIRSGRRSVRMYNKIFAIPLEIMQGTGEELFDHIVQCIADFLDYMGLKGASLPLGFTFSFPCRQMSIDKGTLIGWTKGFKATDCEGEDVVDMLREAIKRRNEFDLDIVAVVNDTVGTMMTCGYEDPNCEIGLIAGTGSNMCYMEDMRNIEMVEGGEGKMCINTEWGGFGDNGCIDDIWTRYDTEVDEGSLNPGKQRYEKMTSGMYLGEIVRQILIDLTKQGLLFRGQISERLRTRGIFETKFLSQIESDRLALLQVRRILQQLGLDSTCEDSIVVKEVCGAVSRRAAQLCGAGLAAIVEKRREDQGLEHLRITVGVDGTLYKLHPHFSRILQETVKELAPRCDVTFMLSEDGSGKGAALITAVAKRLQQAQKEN

[4] = target: Nonstructural protein 1 (Influenza A virus, UniProt Q194T2); type: functional, Influenza A virus (A/California/07/2009(H1N1))
[5] = target: Hexokinase-1 (Homo sapiens, UniProt P19367); assay: HK1 enzyme activation by HKDC1 hits – biochemical, selectivity assay for HKDC1 activator project, dose response (AID 504762); type: functional
[6] = test system: INS1; assay: INS-1E survival protection against cytokine death – cell-based, luminescence, retest, dose response (AID 449756); type: functional; conditions: Rattus norvegicus;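 note: cell death triggered by IL-1 beta plus TNF-alpha plus IFN-gamma mixture; protective hits raise ATP signal compared with cytokine alone wells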
[7] = target: T3, Tyrosine-protein phosphatase non-receptor type 7 (Homo sapiens, UniProt P35236); type: functional
T3 sequence (P35236 whole entry): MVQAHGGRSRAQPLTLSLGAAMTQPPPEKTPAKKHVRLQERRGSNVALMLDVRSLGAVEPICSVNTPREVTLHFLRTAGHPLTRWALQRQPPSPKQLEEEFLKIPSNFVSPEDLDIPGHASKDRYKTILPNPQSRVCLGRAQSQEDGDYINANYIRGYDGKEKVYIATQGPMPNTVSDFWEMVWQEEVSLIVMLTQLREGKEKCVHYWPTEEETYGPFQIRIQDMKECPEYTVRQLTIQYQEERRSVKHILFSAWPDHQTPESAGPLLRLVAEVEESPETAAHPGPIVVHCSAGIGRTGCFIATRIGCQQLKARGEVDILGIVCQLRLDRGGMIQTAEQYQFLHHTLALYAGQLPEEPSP

[8] = target: T4, Tyrosine-protein phosphatase non-receptor type 22 (Homo sapiens, UniProt Q9Y2R2); type: functional
T4 sequence (Q9Y2R2 whole entry): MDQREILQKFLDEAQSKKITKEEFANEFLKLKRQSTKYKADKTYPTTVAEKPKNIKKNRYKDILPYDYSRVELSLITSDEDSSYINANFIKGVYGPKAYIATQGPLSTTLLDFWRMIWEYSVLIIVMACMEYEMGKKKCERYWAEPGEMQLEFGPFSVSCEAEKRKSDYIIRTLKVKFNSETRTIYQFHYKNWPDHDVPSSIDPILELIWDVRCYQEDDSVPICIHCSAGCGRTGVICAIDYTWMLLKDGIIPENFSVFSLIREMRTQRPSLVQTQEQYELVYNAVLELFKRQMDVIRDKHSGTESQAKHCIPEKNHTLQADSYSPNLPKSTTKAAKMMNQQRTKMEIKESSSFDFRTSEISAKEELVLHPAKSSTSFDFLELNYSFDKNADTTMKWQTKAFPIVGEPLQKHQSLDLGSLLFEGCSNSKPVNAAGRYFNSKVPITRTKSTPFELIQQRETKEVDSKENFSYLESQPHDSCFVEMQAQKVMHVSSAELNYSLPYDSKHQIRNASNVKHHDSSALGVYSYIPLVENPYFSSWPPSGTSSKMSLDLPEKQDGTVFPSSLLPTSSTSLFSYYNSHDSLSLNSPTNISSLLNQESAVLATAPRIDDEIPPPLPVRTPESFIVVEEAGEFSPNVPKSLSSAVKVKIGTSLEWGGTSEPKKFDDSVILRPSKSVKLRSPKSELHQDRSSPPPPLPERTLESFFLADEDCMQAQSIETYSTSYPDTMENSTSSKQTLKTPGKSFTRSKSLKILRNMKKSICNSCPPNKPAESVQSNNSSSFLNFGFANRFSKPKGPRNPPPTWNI

[9] = target: T4, Tyrosine-protein phosphatase non-receptor type 22; type: functional; remark: listed apart in the source
[10] = Trypanosoma cruzi growth suppression in host cells – NIH3T3 host cells, beta-gal luminescence, confirmation (AID 2044); type: functional, cell-based;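 note: intracellular parasites grown in NIH/3T3 mouse fibroblasts as host cells; luminescent beta-galactosidase reporter signal from transgenic T. cruzi replicating inside host cells; inhibitors lower the luminescence signal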
[11] = test system: CHO-K1; assay: (§1) Counterscreen for antagonists of the orexin 1 receptor (OX1R; HCRTR1): Homogeneous time resolved fluorescence (HTRF)-based cell-based dose response assay to identify antagonists of the parental CHO-K1 cell line. [Related pubchem assays (depositor defined):AID434989, AID435008, AID463079, AID485270, AID492963, AID492964, AID492965, AID493232, AID504699, AID504701]; type: functional; conditions: Cricetulus griseus
[12] = as §1, with “Fluorescence-based” for “Homogeneous time resolved fluorescence (HTRF)-based”, “cell-based high throughput” for “cell-based”, “CHO” for “CHO-K1”; type: functional
[13] = target: T5, Orexin/Hypocretin receptor type 1 (Homo sapiens, UniProt O43613); assay: Homogeneous Time Resolved Fluorescence (HTRF)-based cell-based high throughput dose response assay for antagonists of the orexin 1 receptor (OX1R; HCRTR1). [Related pubchem assays (depositor defined):AID434989, AID435008, AID463079, AID485270, AID492963, AID492964, AID492965, AID493232, AID504717, AID504718]; type: functional
T5 sequence (O43613 whole entry): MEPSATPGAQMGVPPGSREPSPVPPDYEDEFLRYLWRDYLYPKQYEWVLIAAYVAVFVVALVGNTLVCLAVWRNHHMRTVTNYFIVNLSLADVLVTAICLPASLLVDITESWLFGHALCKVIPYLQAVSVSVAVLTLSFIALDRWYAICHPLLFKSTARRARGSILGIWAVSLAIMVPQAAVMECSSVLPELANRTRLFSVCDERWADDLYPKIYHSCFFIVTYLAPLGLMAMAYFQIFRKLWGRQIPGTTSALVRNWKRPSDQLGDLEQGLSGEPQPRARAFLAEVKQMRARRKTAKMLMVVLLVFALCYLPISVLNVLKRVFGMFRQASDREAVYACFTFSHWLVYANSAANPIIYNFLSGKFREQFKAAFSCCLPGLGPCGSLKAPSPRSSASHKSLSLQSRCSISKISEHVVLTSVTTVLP

[14] = target: T5, Orexin/Hypocretin receptor type 1; assay: Fluorescence-based cell-based high throughput dose response assay for antagonists of the orexin 1 receptor (OX1R; HCRTR1). [Related pubchem assays (depositor defined):AID434989, AID435008, AID463079, AID485270, AID492963, AID492964, AID492965, AID493232, AID504717, AID504718]; type: functional
[15] = target: Cytochrome P450 2D6 (Homo sapiens, UniProt P10635);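 note: CYP2D6 member of a cytochrome P450 panel assay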
[16] = target: Phosphomannomutase 2 (Homo sapiens, UniProt O15305); assay: Counter screen SAR assay for PMM2 inhibitors via a fluorescence intensity assay. [Related pubchem assays (depositor defined):AID1545, AID1574]
[17] = target: T6, Heat shock factor protein 1 (Mus musculus, UniProt P38532); assay: enhancement of HSF1-driven luciferase signal – cell-based, NIH3T3, luminescence, dose retest, confirmation (AID 435004); type: functional;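 note: stress induced by proteasome inhibitor MG132 added 30 min after compound; luciferase reporter driven by HSF1 response element in NIH3T3 cells; actives raise luminescence as potentiators of the MG132 stress response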
T6 sequence (P38532 whole entry): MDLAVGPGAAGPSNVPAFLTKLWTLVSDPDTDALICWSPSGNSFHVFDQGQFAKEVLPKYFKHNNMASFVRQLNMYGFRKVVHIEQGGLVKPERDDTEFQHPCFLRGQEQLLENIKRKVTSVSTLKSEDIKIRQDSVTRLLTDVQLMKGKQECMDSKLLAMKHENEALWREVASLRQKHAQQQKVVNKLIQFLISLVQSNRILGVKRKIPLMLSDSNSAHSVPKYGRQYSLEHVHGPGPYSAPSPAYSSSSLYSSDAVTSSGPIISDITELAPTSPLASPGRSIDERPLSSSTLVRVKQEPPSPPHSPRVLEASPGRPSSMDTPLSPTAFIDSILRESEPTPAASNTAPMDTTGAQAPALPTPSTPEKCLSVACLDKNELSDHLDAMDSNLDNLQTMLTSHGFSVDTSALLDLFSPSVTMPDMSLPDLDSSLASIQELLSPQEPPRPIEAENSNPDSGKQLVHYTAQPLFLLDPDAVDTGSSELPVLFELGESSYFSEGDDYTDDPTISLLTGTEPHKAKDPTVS

[18] = target: X-box-binding protein 1 (Homo sapiens, UniProt P17861); type: functional, Cricetulus griseus;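 note: confirmatory dose-response counter-screen serving a CHOP assay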
[19] = target: Paired box protein Pax-8 (Homo sapiens, UniProt Q06710); assay: PAX8 transcriptional activity inhibition in RMG-I – RMG-I cells, luciferase, cherry-pick, dose response (AID 687027); type: functional, cell-based;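 note: luciferase reporter driven by Pax8 target thyroperoxidase promoter measured by SteadyGlo luminescence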
[20] = target: T7, Delta-type opioid receptor (Homo sapiens, UniProt P41143); assay: HTS Image-Based Screen for Antagonists of the DOR Receptor. [Related pubchem assays (depositor defined):AID1777, AID1785, AID1786, AID2133]; type: functional
[21] = target: Mu-type opioid receptor (Homo sapiens, UniProt P35372); assay: HTS Image-Based Screen for Agonists of the MOR Receptor. [Related pubchem assays (depositor defined):AID1777, AID1785, AID1786, AID2133]; type: functional;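 note: imaging of beta-arrestin GFP recruitment into spots after receptor activation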
[22] = target: T7, Delta-type opioid receptor; assay: HTS Image-Based Screen for Agonists of the DOR Receptor. [Related pubchem assays (depositor defined):AID1777, AID1786, AID2133]; type: functional
[23] = target: T8, Kappa-type opioid receptor (Homo sapiens, UniProt P41145); type: functional
[24] = target: Beta-galactosidase (Escherichia coli, UniProt Q8VNN2); type: functional
[25] = target: T8, Kappa-type opioid receptor; type: functional; remark: listed apart in the source

T8 sequence (P41145 whole entry): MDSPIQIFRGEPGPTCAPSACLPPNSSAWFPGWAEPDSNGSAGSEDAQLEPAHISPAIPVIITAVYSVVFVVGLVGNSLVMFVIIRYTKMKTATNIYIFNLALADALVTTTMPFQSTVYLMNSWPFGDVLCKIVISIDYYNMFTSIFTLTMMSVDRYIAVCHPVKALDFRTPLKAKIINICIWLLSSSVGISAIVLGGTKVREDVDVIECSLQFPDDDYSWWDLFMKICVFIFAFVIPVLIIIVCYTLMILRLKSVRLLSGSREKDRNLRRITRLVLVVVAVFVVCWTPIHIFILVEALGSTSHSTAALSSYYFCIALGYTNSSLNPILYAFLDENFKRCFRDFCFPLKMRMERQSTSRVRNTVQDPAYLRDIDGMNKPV
T7 sequence (P41143 whole entry): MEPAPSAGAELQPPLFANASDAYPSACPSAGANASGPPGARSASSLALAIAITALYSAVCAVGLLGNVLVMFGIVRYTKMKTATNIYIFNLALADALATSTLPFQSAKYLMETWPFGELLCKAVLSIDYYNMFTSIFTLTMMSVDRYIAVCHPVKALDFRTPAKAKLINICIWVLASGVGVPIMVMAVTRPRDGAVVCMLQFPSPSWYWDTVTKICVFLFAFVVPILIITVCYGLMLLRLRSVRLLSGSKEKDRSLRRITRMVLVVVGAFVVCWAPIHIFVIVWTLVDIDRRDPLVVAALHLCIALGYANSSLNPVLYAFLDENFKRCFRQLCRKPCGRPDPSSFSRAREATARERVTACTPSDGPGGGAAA
Hexokinase-1, sequence (P19367 whole entry): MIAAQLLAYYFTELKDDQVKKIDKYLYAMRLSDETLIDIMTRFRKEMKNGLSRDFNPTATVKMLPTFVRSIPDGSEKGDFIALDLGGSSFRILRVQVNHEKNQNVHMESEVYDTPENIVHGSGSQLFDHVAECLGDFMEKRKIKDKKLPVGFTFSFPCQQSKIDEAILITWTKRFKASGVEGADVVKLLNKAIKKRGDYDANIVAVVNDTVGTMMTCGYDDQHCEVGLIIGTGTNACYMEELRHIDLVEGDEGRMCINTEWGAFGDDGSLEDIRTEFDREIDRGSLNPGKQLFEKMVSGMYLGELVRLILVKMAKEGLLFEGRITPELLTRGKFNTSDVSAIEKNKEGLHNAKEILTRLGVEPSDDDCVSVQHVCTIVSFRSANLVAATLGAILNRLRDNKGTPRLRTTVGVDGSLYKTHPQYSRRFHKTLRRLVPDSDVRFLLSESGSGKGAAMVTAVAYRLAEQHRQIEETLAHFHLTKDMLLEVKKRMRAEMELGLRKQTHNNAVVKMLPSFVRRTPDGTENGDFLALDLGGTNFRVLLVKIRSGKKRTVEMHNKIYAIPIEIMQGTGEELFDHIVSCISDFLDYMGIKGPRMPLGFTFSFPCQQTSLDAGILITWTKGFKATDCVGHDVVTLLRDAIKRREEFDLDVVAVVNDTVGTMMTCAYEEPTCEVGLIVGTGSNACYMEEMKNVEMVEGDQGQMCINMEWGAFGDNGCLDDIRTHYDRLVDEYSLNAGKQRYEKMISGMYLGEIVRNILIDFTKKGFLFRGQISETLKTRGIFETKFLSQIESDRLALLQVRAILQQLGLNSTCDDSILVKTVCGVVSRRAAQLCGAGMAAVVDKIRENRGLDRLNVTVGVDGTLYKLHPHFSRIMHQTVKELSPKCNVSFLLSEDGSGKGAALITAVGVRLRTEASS
X-box-binding protein 1, sequence (P17861 whole entry): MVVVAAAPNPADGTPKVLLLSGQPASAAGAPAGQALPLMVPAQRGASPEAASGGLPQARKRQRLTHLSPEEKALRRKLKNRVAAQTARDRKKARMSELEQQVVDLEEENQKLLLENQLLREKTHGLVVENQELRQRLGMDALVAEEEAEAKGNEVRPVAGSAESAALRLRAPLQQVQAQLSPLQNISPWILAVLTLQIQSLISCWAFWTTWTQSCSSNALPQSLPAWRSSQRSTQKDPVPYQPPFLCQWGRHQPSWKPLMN
Phosphomannomutase 2, sequence (O15305 whole entry): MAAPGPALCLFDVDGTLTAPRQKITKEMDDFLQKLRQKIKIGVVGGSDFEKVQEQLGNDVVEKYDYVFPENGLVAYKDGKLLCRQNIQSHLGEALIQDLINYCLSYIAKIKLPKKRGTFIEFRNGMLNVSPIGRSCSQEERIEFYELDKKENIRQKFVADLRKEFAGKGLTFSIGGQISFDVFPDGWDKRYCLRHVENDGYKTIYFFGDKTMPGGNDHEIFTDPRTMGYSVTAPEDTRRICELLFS
Cytochrome P450 2D6, sequence (P10635 whole entry): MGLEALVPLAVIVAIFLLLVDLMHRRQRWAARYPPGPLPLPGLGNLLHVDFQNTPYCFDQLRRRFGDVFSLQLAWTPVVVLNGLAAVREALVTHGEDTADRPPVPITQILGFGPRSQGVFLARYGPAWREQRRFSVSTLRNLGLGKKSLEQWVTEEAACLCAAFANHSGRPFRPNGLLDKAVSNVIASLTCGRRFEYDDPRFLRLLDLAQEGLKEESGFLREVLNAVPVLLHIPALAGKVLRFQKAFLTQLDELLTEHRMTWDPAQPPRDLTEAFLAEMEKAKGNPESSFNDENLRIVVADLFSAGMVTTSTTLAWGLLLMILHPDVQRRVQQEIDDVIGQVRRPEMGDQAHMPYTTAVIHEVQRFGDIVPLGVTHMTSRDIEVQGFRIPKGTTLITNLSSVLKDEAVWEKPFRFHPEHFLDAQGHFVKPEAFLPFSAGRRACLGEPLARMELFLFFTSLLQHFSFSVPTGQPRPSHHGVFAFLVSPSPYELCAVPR
Nonstructural protein 1, sequence (Q194T2 whole entry): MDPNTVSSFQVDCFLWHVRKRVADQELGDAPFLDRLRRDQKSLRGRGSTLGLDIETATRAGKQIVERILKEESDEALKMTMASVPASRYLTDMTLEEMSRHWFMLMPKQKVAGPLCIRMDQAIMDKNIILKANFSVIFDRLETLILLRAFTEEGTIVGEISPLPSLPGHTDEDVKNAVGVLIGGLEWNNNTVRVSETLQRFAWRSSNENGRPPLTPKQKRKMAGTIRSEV
Mu-type opioid receptor, sequence (P35372 whole entry): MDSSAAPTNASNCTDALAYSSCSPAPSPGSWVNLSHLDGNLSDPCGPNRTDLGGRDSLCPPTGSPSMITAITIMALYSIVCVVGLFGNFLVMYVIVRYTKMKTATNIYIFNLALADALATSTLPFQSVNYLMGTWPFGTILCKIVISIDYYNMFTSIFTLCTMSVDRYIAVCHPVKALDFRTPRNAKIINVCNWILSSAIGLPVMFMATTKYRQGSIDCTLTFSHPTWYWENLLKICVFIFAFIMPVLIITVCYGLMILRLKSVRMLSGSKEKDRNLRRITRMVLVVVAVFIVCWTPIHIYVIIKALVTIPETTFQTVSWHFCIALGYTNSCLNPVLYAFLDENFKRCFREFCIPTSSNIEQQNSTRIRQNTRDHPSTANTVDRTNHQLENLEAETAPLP
Paired box protein Pax-8, sequence (Q06710 whole entry): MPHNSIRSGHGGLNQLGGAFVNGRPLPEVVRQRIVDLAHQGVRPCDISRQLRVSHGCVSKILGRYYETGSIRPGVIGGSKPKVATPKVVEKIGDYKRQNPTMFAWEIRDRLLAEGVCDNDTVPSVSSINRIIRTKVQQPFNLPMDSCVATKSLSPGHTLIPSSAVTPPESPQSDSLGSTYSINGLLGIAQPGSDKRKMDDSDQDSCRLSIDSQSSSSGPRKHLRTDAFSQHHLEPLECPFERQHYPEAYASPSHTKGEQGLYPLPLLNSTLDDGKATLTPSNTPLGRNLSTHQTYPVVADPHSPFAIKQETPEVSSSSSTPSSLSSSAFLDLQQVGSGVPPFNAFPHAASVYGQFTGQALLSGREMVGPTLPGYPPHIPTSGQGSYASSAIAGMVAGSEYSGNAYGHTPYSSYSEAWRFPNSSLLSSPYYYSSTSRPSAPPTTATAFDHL
SUMO-activating enzyme, sequence (Q9UBE0 whole entry): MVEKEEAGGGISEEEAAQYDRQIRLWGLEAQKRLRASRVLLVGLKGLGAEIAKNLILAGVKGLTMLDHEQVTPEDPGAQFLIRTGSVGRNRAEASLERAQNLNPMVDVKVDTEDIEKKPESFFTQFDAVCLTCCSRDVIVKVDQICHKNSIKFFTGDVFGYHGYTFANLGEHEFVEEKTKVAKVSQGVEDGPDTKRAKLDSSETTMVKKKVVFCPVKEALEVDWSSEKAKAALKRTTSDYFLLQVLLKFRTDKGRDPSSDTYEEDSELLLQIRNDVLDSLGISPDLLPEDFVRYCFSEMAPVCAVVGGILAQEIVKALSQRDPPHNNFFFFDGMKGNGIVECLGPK
SUMO-activating enzyme, sequence (Q9UBT2 whole entry): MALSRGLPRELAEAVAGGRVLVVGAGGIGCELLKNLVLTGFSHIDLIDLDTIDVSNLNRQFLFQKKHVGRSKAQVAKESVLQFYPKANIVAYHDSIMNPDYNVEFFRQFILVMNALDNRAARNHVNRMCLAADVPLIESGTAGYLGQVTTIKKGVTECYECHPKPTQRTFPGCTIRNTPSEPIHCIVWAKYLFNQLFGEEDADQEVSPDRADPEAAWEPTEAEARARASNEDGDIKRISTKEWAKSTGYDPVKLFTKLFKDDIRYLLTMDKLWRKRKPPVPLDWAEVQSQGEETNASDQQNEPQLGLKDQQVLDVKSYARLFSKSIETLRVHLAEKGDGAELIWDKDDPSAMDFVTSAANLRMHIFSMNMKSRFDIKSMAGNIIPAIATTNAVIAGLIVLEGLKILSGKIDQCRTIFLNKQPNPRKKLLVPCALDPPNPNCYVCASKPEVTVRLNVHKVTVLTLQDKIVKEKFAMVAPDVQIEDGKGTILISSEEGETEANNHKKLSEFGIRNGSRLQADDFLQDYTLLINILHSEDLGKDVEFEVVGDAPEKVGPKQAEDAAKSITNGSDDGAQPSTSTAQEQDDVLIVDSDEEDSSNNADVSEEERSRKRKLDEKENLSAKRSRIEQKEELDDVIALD

C/C(=N\NC(=O)CNc1cccc2ccccc12)c1ccccc1
IC50 [1]: > 100 µM (inactive) | IC50 [2]: > 50 µM (not active)

O=C(NC(=S)NNC(=O)c1cnccn1)c1ccc(F)cc1
EC50 [3]: 14.5 µM (active) | IC50 [4]: 2.95 µM (active) | EC50 [5]: > 80 µM (inactive) | AC50 [6]: 0.889 µM (active)

COc1ccc(-c2nc3c(c(=O)n(C)c(=O)n3C)n2CC2CC(c3ccccc3)=NO2)cc1OC (stereo not drawn)
EC50 [3]: 33.4 µM (inactive) | EC50 [5]: 35.1 µM (inactive)

O=C(Nc1nccs1)c1ccc(S(=O)(=O)NCc2cccs2)cc1
IC50 [7]: > 79.4 µM (inactive) | IC50 [8]: > 79.4 µM (inactive) | IC50 [9]: > 79.4 µM (inactive)

NC(=S)N/N=C/c1ccccc1OCc1cccc(Cl)c1
EC50 [10]: 0.323 µM (active) | IC50 [11]: > 66.2 µM (inactive) | IC50 [12]: > 49.7 µM (inactive) | IC50 [13]: 2.71 µM (active) | IC50 [14]: 7.74 µM (active) | AC50 [15]: inconclusive

CSc1nc(-c2ccccc2)nc(C(Cl)Cl)n1
IC50 [16]: > 100 µM (inactive) | EC50 [17]: 2.7 µM (active) | Absolute IC50 (XBP1) [18]: 10 µM | AC50 [6]: 3.69 µM (active) | AC50 [19]: 2.26 µM (active)

COc1ccc(N2CCN(CCCNC(=O)C(=O)c3c(C)n(C)c4ccccc34)CC2)cc1
IC50 [20]: > 32 µM (inactive) | EC50 [21]: > 32 µM (inactive) | EC50 [22]: > 32 µM (inactive) | IC50 [23]: 18.3 µM (active) | EC50 [24]: > 31.5 µM (inactive) | IC50 [25]: 6.16 µM
